PMC7481357, “N-terminal Myristoylation Enhanced the Antimicrobial Activity of Antimicrobial Peptide PMAP-36PW” (Frontiers in Cellular and Infection Microbiology, 2020)

Key:
P. aeruginosa GIM 1.551 [1] = assay: Inhibition zone assay (disk diffusion); format: cell-based, Pseudomonas aeruginosa; parameters: key: +, means the peptide has antibacterial activity; settings: disk 10 μg peptide, 18 h at 37°C, * P < 0.05, ** P < 0.01 vs PMAP-36PW
Experimental: (§1) The inhibition zone assay was performed through the disk diffusion to evaluate the antimicrobial activity of Myr-36PW in vitro (Dunne et al., [2017]). The four above-mentioned bacterial strains were used as experimental strains, with L. monocytogenes CICC 21634 cultured in BHI medium, and P. aeruginosa GIM 1.551 cultured in TSB medium. The bacterial cells were cultured for 12 h at 37°C in the appropriate medium, and the bacterial cell suspension was spread on LB agar. The disks containing 10 μg of peptides (1 μg/μL) were attached to the solid medium and incubated at 37°C for 18 h. Finally the diameter of the inhibition zone was measured.

P. aeruginosa GIM 1.551 [2] = format: cell-based, Pseudomonas aeruginosa; settings: P. aeruginosa GIM 1.551; * indicates resistant (CLSI, 2020)
Experimental: (§2) The MICs of Myr-36PW in vitro were measured through microdilution in accordance with the Clinical and Laboratory Standards Institute (CLSI, [2020]). The bacterial cells were cultured for 12 h at 37°C in the appropriate medium and then diluted to 1 × 10^6 CFU/mL. Equal volumes (100 μL) of bacterial cell suspension and two-fold serially diluted different concentrations peptides (0.0039–256 μg/mL) were added to each well of the sterile 96-well plate. The samples were incubated for 18 h at 37°C. After incubation, the MICs of the peptides were determined by evaluating the growth based on the OD600 of the cultures.

[3] = system: L. monocytogenes CICC 21634; format: cell-based, Listeria monocytogenes; settings: L. monocytogenes CICC 21634; * indicates resistant (CLSI, 2020)
Experimental: as §2

S. aureus ATCC 25923 [4] = format: cell-based, Staphylococcus aureus; settings: S. aureus ATCC 25923; * indicates resistant (CLSI, 2020)
Experimental: as §2

[5] = system: L. monocytogenes CICC 21634; assay: Inhibition zone assay (disk diffusion); format: cell-based, Listeria monocytogenes; parameters: key: +, means the peptide has antibacterial activity; settings: disk 10 μg peptide, 18 h at 37°C, * P < 0.05, ** P < 0.01 vs PMAP-36PW
Experimental: as §1

S. typhimurium SL 1344 [6] = format: cell-based, Salmonella typhimurium; settings: S. typhimurium SL 1344; * indicates resistant (CLSI, 2020)
Experimental: as §2

S. typhimurium SL 1344 [7] = assay: Inhibition zone assay (disk diffusion); format: cell-based, Salmonella typhimurium; parameters: key: +, means the peptide has antibacterial activity; settings: disk 10 μg peptide, 18 h at 37°C, * P < 0.05, ** P < 0.01 vs PMAP-36PW
Experimental: as §1

S. aureus ATCC 25923 [8] = assay: Inhibition zone assay (disk diffusion); format: cell-based, Staphylococcus aureus; parameters: key: +, means the peptide has antibacterial activity; settings: disk 10 μg peptide, 18 h at 37°C, * P < 0.05, ** P < 0.01 vs PMAP-36PW
Experimental: as §1

MICs of different classes of antibiotics (P. aeruginosa GIM 1.551 [2]): 64* μg/mL
MICs of different classes of antibiotics [3]: 32* μg/mL
MICs of different classes of antibiotics (S. aureus ATCC 25923 [4]): <0.25 µg/mL
MICs of different classes of antibiotics (S. typhimurium SL 1344 [6]): 4 µg/mL
SMILES: CO/N=C(\C(=O)N[C@@H]1C(=O)N2C(C(=O)[O-])=C(CSC(=O)c3ccco3)CS[C@H]12)c1csc(N)n1.[Na+] [Ceftiofur Sodium, Ceftiofur sodium]
In vitro antibacterial activity (disk diffusion) (P. aeruginosa GIM 1.551 [1]): +
In vitro antibacterial activity (disk diffusion) [5]: +
In vitro antibacterial activity (disk diffusion) (S. typhimurium SL 1344 [7]): +
In vitro antibacterial activity (disk diffusion) (S. aureus ATCC 25923 [8]): +
